Assays:
[1] = molecular target: T1, Kv4.3 current (hKv4.3 gene expressed in HEK 293 cells) (Homo sapiens, UniProt Q9UK17); experiment: Whole-cell patch-clamp, Kv4.3 current in HEK 293 cells; format: cell-based; conditions: 30 μM, representative cells
T1 construct: expressed in transfected cells
T1 sequence (Q9UK17 1-655): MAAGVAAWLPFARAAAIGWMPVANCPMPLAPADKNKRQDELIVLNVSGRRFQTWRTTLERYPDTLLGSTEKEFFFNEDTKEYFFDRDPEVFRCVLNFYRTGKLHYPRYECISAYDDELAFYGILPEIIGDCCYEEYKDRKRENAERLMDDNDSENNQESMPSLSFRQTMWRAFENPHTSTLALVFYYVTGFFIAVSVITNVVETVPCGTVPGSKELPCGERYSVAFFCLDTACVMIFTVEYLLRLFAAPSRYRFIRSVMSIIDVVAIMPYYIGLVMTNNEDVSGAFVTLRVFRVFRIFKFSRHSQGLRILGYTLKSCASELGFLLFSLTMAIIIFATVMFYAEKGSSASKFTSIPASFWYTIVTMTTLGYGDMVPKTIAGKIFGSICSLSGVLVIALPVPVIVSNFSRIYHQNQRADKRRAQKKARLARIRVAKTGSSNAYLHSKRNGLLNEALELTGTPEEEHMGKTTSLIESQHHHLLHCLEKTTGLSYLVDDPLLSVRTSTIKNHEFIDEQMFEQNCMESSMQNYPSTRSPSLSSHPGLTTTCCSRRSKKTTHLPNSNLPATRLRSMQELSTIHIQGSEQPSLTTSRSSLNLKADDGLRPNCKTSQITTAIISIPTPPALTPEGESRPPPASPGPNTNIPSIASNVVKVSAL
Experimental: HEK 293 cell line stably expressing the hKV1.5 gene (Wu et al., 2011) or hKv4.3 gene (Wu et al., 2013) was maintained in Dulbecco's modified eagle's medium (DMEM, Invitrogen, Hong Kong) supplemented with 10% fetal bovine serum and 400 μg/mL G418 in a 5% CO2 incubator. Cells were seeded on a glass cover slip for electrophysiology recording.
Ionic currents in HEK 293 cell lines and rat atrial myocytes were measured by the standard whole-cell patch-clamp technique using a standard pipette and bath solution with an EPC-10 amplifier and Pulse software (HEKA, Lambrecht, Germany). A 3M KCl-agar salt bridge was used as the reference electrode. The current signal was sampled at 5 kHz, recorded and stored in the hard disk of an IBM compatible computer. All experiments were conducted at room temperature (22-23° C.).
However, Kv1.5 current (FIG. 3D), Kv4.3 current (FIG. 3E) or IKACh (FIG. 3F) was inhibited by 10 μM acacetin in representative cells consistent with experimental reports.

IKACh = molecular target: T2, IKACh (Rattus norvegicus, UniProt P48548+P63251); experiment: Whole-cell patch-clamp, IKACh activated by 5 μM carbachol in rat atrial myocytes; format: cell-based; conditions: 30 μM, representative cells
T2 construct: from tissue; host or cells: freshly isolated left atrial myocytes of SD rats
T2 sequence (P63251 1-501): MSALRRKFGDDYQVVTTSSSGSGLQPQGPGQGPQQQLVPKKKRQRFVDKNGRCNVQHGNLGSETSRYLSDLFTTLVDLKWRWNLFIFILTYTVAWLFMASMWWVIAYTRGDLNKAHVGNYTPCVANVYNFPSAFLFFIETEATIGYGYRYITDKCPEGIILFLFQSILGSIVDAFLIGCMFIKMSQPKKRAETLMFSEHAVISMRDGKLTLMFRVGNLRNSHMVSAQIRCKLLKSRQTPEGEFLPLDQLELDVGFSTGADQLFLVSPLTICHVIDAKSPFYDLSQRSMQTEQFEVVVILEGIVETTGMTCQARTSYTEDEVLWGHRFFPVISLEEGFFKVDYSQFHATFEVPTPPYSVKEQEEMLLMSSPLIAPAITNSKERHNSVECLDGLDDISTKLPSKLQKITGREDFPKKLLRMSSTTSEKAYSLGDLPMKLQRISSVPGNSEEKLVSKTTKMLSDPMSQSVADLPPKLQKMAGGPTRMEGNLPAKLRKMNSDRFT
T2 sequence (P48548 1-419): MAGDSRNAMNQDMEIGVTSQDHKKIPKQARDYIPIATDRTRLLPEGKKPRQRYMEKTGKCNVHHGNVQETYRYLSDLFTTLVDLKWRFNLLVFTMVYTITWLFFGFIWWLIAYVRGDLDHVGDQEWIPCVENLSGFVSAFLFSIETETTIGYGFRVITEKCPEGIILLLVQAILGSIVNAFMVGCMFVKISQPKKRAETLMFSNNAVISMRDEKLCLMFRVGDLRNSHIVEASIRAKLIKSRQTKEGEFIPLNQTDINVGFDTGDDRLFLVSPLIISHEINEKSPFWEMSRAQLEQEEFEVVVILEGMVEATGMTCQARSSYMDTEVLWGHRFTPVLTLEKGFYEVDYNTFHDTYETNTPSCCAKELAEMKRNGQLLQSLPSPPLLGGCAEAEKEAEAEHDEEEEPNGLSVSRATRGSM
Experimental: Rat atrial myocytes were prepared with the procedure described previously (Li et al., 2002) with a slight modification. Briefly, After SD rats (250-300 g) were anesthetized with pentobarbital (30 mg/kg i.p.), the heart was mounted to a Langendorff heart perfusion apparatus via the aorta and perfused with HEPES-buffered Tyrode's solution at 37° C. gassed with 100% 02 for 5 min. The heart was perfused with Ca^2+-free Tyrode's solution for 5-8 min, followed by Ca^2+-free Tyrode's solution containing 0.06% collagenase (Type II, Worthington Biochemical, Lakewood, N.J., USA) and 0.1% bovine serum albumin (Sigma). When the heart became softened the left atrium was excised and placed in a high-K storage medium at room temperature for 2 h, and then used for electrophysiological recording (Li et al., 2002).
Ionic currents in HEK 293 cell lines and rat atrial myocytes were measured by the standard whole-cell patch-clamp technique using a standard pipette and bath solution with an EPC-10 amplifier and Pulse software (HEKA, Lambrecht, Germany). A 3M KCl-agar salt bridge was used as the reference electrode. The current signal was sampled at 5 kHz, recorded and stored in the hard disk of an IBM compatible computer. All experiments were conducted at room temperature (22-23° C.). […]

## COc1ccc(-c2cc(=O)c3c(O)cc(OP(=O)(O)O)cc3o2)cc1 [Prodrug A]
[1]
  effect on Kv4.3 current: no inhibitory effect
IKACh
  effect on IKACh: no inhibitory effect
